Assay results as given in ChEMBL document CHEMBL5729309, “Substituted pyrimidines, pharmaceutical compositions and therapeutic methods thereof” (2022).
pIC50: −log10 of the molar value.

What was measured:
[1] = biological target: T1, Cytoplasmic tyrosine-protein kinase BMX (Homo sapiens, UniProt P51813)
T1 sequence (P51813 whole entry): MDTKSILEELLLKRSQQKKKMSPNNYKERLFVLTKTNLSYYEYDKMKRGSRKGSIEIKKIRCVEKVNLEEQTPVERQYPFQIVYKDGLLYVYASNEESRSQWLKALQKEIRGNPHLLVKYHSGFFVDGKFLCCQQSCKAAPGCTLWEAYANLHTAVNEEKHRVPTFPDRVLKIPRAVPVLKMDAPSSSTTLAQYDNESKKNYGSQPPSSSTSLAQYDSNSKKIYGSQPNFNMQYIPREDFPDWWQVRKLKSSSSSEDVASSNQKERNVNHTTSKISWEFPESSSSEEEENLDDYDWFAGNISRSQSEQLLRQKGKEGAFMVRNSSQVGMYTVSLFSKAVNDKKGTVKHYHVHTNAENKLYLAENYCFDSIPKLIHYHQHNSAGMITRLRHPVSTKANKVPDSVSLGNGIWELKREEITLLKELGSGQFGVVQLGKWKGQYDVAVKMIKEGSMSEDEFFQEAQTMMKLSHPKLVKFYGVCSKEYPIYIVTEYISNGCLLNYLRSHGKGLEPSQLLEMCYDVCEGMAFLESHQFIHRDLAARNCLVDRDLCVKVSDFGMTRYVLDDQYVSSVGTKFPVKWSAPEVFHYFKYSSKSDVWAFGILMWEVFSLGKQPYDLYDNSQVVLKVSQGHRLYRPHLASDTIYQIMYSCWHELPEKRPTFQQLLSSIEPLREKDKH

[2] = biological target: Epidermal growth factor receptor (Homo sapiens, UniProt P00533)
[3] = biological target: Focal adhesion kinase 1 (Homo sapiens, UniProt Q05397)
[4] = biological target: T2, Tyrosine-protein kinase ITK/TSK (Homo sapiens, UniProt Q08881)
T2 sequence (Q08881 whole entry): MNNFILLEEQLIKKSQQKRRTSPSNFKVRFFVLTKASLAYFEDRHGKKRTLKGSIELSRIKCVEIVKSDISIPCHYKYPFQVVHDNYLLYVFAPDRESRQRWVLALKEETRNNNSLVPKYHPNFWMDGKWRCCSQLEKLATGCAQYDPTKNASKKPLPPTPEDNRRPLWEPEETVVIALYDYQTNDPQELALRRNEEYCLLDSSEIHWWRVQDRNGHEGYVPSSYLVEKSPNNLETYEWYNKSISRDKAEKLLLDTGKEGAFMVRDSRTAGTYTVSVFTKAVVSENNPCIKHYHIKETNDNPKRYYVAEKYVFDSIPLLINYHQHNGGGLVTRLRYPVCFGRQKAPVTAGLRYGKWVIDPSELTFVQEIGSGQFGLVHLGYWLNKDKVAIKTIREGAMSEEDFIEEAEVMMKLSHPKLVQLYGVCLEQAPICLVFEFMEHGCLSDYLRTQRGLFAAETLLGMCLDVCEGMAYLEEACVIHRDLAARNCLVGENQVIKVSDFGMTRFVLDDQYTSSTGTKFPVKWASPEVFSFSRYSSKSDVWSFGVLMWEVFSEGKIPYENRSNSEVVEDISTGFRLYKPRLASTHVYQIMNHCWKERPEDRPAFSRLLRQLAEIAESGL

Sequence of Focal adhesion kinase 1 (Q05397 whole entry): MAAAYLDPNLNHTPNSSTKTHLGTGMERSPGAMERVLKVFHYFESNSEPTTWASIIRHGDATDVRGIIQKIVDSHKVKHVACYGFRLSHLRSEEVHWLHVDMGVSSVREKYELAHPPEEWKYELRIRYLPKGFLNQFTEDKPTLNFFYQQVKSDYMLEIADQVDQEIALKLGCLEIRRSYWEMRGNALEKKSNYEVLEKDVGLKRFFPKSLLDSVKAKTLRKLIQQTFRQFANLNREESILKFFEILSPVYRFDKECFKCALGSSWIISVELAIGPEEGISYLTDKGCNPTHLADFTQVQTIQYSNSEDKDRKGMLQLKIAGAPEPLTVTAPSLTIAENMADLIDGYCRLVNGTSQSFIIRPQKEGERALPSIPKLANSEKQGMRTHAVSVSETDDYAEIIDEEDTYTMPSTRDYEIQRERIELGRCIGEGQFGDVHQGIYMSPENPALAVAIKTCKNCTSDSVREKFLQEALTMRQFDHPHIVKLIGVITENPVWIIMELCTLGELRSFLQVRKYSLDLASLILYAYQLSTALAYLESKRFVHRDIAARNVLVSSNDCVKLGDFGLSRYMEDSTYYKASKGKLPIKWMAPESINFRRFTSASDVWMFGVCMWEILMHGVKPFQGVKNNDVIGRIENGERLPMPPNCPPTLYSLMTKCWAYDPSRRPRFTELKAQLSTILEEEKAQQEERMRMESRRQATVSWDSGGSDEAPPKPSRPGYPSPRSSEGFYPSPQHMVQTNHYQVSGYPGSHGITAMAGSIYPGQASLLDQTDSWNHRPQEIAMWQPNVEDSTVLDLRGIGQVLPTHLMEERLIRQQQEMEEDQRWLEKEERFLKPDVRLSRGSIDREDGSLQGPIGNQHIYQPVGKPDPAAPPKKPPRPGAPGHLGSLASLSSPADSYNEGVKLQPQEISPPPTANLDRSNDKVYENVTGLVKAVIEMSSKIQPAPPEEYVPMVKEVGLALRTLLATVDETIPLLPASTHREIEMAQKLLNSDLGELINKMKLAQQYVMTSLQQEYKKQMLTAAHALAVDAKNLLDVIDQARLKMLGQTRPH
Sequence of Epidermal growth factor receptor (P00533 whole entry): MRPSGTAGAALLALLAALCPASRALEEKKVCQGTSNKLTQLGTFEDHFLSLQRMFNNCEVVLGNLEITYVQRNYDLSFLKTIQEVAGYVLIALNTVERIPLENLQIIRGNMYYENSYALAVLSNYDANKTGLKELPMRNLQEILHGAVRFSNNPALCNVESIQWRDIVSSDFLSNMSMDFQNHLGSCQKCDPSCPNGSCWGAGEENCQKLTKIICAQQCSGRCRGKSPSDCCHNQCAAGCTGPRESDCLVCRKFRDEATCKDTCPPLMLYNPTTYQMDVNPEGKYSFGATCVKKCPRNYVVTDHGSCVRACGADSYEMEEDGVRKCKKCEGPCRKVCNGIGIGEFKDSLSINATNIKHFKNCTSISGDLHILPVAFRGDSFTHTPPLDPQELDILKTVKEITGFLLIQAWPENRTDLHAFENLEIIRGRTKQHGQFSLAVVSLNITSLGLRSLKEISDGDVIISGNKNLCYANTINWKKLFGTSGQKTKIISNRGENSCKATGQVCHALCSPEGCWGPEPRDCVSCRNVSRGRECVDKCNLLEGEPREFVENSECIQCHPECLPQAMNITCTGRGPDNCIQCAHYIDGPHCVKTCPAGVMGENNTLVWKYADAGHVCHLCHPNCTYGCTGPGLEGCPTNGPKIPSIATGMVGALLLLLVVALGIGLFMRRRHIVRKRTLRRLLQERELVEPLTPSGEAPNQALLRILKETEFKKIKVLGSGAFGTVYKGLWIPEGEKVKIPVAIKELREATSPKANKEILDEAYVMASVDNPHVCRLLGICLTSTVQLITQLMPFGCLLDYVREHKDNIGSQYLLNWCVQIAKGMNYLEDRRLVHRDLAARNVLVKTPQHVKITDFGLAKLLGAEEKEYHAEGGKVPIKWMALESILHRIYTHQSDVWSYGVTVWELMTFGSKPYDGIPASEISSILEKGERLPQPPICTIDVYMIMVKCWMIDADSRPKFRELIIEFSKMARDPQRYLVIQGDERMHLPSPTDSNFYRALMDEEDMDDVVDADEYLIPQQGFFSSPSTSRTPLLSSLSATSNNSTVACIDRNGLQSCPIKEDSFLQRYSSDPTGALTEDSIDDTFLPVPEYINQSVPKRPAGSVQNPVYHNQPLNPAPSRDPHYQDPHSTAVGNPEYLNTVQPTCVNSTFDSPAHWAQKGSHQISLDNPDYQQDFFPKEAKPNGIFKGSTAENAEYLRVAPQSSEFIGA

pIC50 [1] | pIC50 [2] | pIC50 [3] | pIC50 [4] | Compound
< 7.00 | < 7.00 | < 7.00 | < 7.00 | C=CC(=O)Nc1ccccc1Nc1nc(Nc2ccc(OCCCOC3(CC)OCC(C)(C)CO3)cc2)ncc1F
> 7.00 | < 7.00 | < 7.00 | < 7.00 | C=CC(=O)N1CCC[C@@H](Nc2nc(Nc3ccc(OCCCOC4(CC)OCC(C)(C)CO4)cc3)ncc2F)C1
